According to ChEMBL document CHEMBL3588819, “Antiviral Limonoids Including Khayanolides from the Trang Mangrove Plant Xylocarpus moluccensis” (J Nat Prod, 2015):

These molecules were tested on Influenza A virus (assay: Antiviral activity against influenza A virus (A/Puerto Rico/8/34(H1N1)) infected in MDCK cells assessed as inhibition of virus-induced cytopathic effect incubated for 48 hrs by crystal violet staining based assay). Details: A/Puerto Rico/8/1934(H1N1).
Format: functional, organism-based
For `COC(=O)C[C@H]1[C@@]2(C)C[C@]3(O)[C@H](C(=O)[C@H]2OC(C)=O)C2=C4CC(=O)O[C@@H](c5ccoc5)[C@]4(C)CC[C@@H]2[C@]13C`, the IC50 was 114 µM.
For `NC(=O)c1ncn([C@@H]2O[C@H](CO)[C@@H](O)[C@H]2O)n1` [RIBAVIRIN], the IC50 was 186 µM.
`COC(=O)C[C@H]1[C@@]2(C)C[C@]3(O)[C@H](C(=O)[C@H]2OC(C)=O)C2=C(CC[C@]4(C)C2=CC(=O)O[C@H]4c2ccoc2)[C@]13C` showed an IC50 of 122 µM.
Molecule `COC(=O)C[C@@H]1[C@@]2(C)[C@H]3CC[C@]4(C)C(=C3[C@@]3(O)[C@@H](OC(C)=O)C(=O)[C@]1(C)C[C@@]23O)CC(=O)O[C@H]4c1ccoc1` has an IC50 of 77.1 µM.
